# In US11773086B2, “Fungal modulators” (TRUSTEES OF BOSTON UNIVERSITY, priority 2020, dated 2023):
# System: FLC-resistant Candida auris
# Assay: Checkerboard (dose-response matrix) with fluconazole, FICI
# Type: cell-based
# Conditions: fractional inhibitory concentration index for enhancement of FLC activity in FLC-resistant Candida auris; <0.5 strong synergy, 2 = no synergy
# Procedure: Generally, the synergy is measured by determining the fractional inhibitory concentration (FIC) value of the combination. […] FIC values for both agents in a particular square/well are calculated in this way followed by determination of the FIC index (sum of the FICs of each agent in the particular square/well).
# Compound potency was assessed alone by dose response assays or in combination with another compound by dose-response matrixes in 96-well plates, or 384-well, flat-bottom, microtiter plates (Corning) as previously described. Plates were incubated at 30° C. for the indicated time period. Growth was quantified by measuring OD600 and corrected for medium background. All strains were assessed in biological duplicate experiments with technical duplicates. Growth was normalized to untreated controls and plotted as a heat map using Java TreeView 1.1.6r4. For dose-response matrixes fractional inhibitory concentration index at 90% growth inhibition (FICI90) was calculated as previously described. The fluconazole Etest susceptibility assay was performed as previously described. Briefly, 200 μL of 5×10^6 cells/mL were plated on YPD agar (1%) plates with either with 50 μM azoffluxin or containing DMSO.
row,SMILES,FICI
1,"CC(C)C[C@@H](O)COc1cc2c(cc1C1(c3cc4c(cc3OC[C@H](O)CC(C)C)OCO4)C(=O)Nc3cc(F)ccc31)OCO2 [CMLD012393, 6-fluoro-3,3-bis(6-(((R)-2-hydroxy-4-methylpentyl)oxy)benzo[d][1,3]dioxol-5-yl)indolin-2-one]",0.130
2,"CC[C@@H](O)COc1cc2c(cc1C1(c3cc4c(cc3OC[C@H](O)CC)OCO4)C(=O)Nc3cc(F)ccc31)OCO2 [CMLD012394, 6-fluoro-3,3-bis(6-((R)-2-hydroxybutoxy)benzo[d][1,3]dioxol-5-yl)indolin-2-one]",0.266
3,"CC[C@@H](O)COc1cc2c(cc1C1(c3cc4c(cc3OC[C@H](O)CC)OCO4)C(=O)Nc3c(F)cccc31)OCO2 [CMLD012399, 7-fluoro-3,3-bis(6-((R)-2-hydroxybutoxy)benzo[d][1,3]dioxol-5-yl)indolin-2-one]",0.500
4,"C=CC[C@@H](O)COc1cc2c(cc1C1(c3cc4c(cc3OC[C@H](O)CC=C)OCO4)C(=O)Nc3cc(F)ccc31)OCO2 [CMLD012400, 6-fluoro-3,3-bis(6-(((R)-2-hydroxypent-4-en-1-yl)oxy)benzo[d][1,3]dioxol-5-yl)indolin-2-one]",0.130
5,"C=CC[C@@H](O)COc1cc2c(cc1C1(c3cc4c(cc3OC[C@H](O)CC=C)OCO4)C(=O)Nc3c(F)cccc31)OCO2 [CMLD012402, 7-fluoro-3,3-bis(6-(((R)-2-hydroxypent-4-en-1-yl)oxy)benzo[d][1,3]dioxol-5-yl)indolin-2-one]",0.113
6,"C=C(C)C[C@@H](O)COc1cc2c(cc1C1(c3cc4c(cc3OC[C@H](O)CC(=C)C)OCO4)C(=O)Nc3c(F)cccc31)OCO2 [CMLD012436, 7-fluoro-3,3-bis(6-(((R)-2-hydroxy-4-methylpent-4-en-1-yl)oxy)benzo[d][1,3]dioxol-5-yl)indolin-2-one]",0.175
7,"CCC[C@@H](O)COc1cc2c(cc1C1(c3cc4c(cc3OC[C@H](O)CCC)OCO4)C(=O)Nc3cc(F)ccc31)OCO2 [CMLD012439, 6-fluoro-3,3-bis(6-(((R)-2-hydroxypentyl)oxy)benzo[d][1,3]dioxol-5-yl)indolin-2-one]",0.130
8,"CCC[C@@H](O)COc1cc2c(cc1C1(c3cc4c(cc3OC[C@H](O)CCC)OCO4)C(=O)Nc3c(F)cccc31)OCO2 [CMLD012440, 7-fluoro-3,3-bis(6-(((R)-2-hydroxypentyl)oxy)benzo[d][1,3]dioxol-5-yl)indolin-2-one]",0.058
9,"CC(C)(C)C[C@@H](O)COc1cc2c(cc1C1(c3cc4c(cc3OC[C@H](O)CC(C)(C)C)OCO4)C(=O)Nc3cc(F)ccc31)OCO2 [CMLD012443, 6-fluoro-3,3-bis(6-(((R)-2-hydroxy-4,4-dimethylpentyl)oxy)benzo[d][1,3]dioxol-5-yl)indolin-2-one]",0.068
10,"CC(C)(C)C[C@@H](O)COc1cc2c(cc1C1(c3cc4c(cc3OC[C@H](O)CC(C)(C)C)OCO4)C(=O)Nc3ccc(F)cc31)OCO2 [CMLD012444, 5-fluoro-3,3-bis(6-(((R)-2-hydroxy-4,4-dimethylpentyl)oxy)benzo[d][1,3]dioxol-5-yl)indolin-2-one]",0.068
11,"CC(C)(C)C[C@@H](O)COc1cc2c(cc1C1(c3cc4c(cc3OC[C@H](O)CC(C)(C)C)OCO4)C(=O)Nc3cc(Br)ccc31)OCO2 [CMLD012446, 6-bromo-3,3-bis(6-(((R)-2-hydroxy-4,4-dimethylpentyl)oxy)benzo[d][1,3]dioxol-5-yl)indolin-2-one]",0.068
12,"C=CCC[C@@H](O)COc1cc2c(cc1C1(c3cc4c(cc3OC[C@H](O)CCC=C)OCO4)C(=O)Nc3cc(F)ccc31)OCO2 [CMLD012447, 6-fluoro-3,3-bis(6-(((R)-2-hydroxyhex-5-en-1-yl)oxy)benzo[d][1,3]dioxol-5-yl)indolin-2-one]",0.130
13,"C=CCC[C@@H](O)COc1cc2c(cc1C1(c3cc4c(cc3OC[C@H](O)CCC=C)OCO4)C(=O)Nc3c(F)cccc31)OCO2 [CMLD012449, 7-fluoro-3,3-bis(6-(((R)-2-hydroxyhex-5-en-1-yl)oxy)benzo[d][1,3]dioxol-5-yl)indolin-2-one]",0.113
